# Reference: ChEMBL document CHEMBL1152444, “Terretonins E and F, inhibitors of the mitochondrial respiratory chain from the marine-derived fungus Aspergillus insuetus (#)” (J Nat Prod, 2009)
# Activity calls are given as the source filed them. No cut-off for these calls is given here.
# Biological target: not listed separately
# Assay: (§1) Inhibition of NADH oxidase in beef heart submitochondrial particles by end-window spectrophotometry
# Design: species or system Bos taurus
row,SMILES,IC50 [µM]
1,C=CC(C)(C)c1[nH]cnc1/C=C1/NC(=O)[C@H](C(C)C)NC1=O [AURANTIAMINE],15.1
2,CCCCCCCCCC[C@H](O)[C@H]1CC[C@H]([C@H]2CC[C@H]([C@H](O)CCCCCCCCCCCCC3C(=O)O[C@@H](C)[C@@H]3O)O2)O1 (stereo partly specified) [LAHERRADURIN],0.00018
3,C=C(C)[C@H]1Cc2c(ccc3c2O[C@@H]2COc4cc(OC)c(OC)cc4[C@@H]2C3=O)O1 [ROTENONE],0.0051
4,C=C1C[C@@H]2[C@]3(C)C(=C(O)C(=O)[C@@]2(C)[C@]2(C(=O)OC)C(=O)O[C@H](C)C(=O)[C@@]12C)C(C)(C)C(=O)C[C@@H]3O [terretonin E],3.9
5,C=C1C[C@@H]2[C@@]3(C)C=CC(=O)C(C)(C)C3=C(O)C(=O)[C@@]2(C)[C@]2(C(=O)OC)C(=O)O[C@H](C)C(=O)[C@@]12C [terretonin F],2.97

# Species: Bos taurus
# Assay: as §1
row,SMILES,Activity
1,O=c1ccn([C@@H]2O[C@H](CO)[C@@H](O)[C@H]2O)c(=O)[nH]1,inactive
